# Experimental data: patent US12023399B2, “Cleansing composition with pyrrolidone carboxylic acid” (The Procter & Gamble Company, priority 2021, dated 2024)
# Test system: Staphylococcus aureus (ATCC #6538)
# Assay: S. aureus growth on pH adjusted TSA plates
# Format: cell-based
# Details: TSA plate pH 4.51 supplemented with 0.03% PCA, ~48 hrs at 33° C.; pH 5.99 plate without PCA shows colonies
# Protocol: The Staphylococcus aureus (ATCC #6538) bacteria cultures used herein can be created from commercially available Trypticase Soy Agar (TSA) plates that are streaked and incubated 17-20 hours at 35° C.±2° C. The resulting bacteria are grown in a conventional saline buffer solution with the optical density adjusted to deliver 10^9 to 10^10 cfu/mL. A sample of the bulk culture can be diluted 1:1,000,000 in saline buffer. 100 ul of the dilute bacteria culture is streak plated onto a TSA plate that is pH adjusted to pH 5.99 or onto a TSA plate that is pH adjusted to pH 4.51 and supplemented with 0.03% PCA. Plates are incubated ˜48 hrs at 33° C.±2° C. and photographed for growth as shown in FIGS. 2A (with pH 5.99) and 2B (with pH 4.5 and 0.03% PCA).
smiles,measurement,value
"O=C1CC[C@@H](C(=O)O)N1 [PCA, pyrrolidone carboxylic acid]",S. aureus colonies after incubation,no colonies are observed
